PubChem BioAssay AID216 (DTP/NCI, 2004)
Values joined by “and” are separate entries in the source; they are usually repeats but may differ in a detail not shown here. Identical values can stand only once. Inconclusive results and toxic doses are left out.

System: BDF1 mice, P288 leukemia ip, survival T/C
Test: NCI In Vivo Anticancer Drug Screen. Data for tumor model P288 Lymphocytic Leukemia (intraperitoneal) in B6D2F1 (BDF1) mice
Settings: higher = longer survival
Procedure: The antitumor activity of compounds was measured in mice bearing transplantable tumors. Survival or tumor size were measured and the results are expressed as the measurement made in the treated group (T) divided by the measurement made in the vehicle treated control group (C). The tumor model used in this assay is P288 Lymphocytic Leukemia (intraperitoneal) in B6D2F1 (BDF1) mice

[1] = endpoint: survival time, mean or median, dose: 125.0 mg/kg/injection, schedule: Q01DX010 (ip), vehicle: saline
[2] = endpoint: survival time, mean or median, dose: 250.0 mg/kg/injection, schedule: Q01DX010 (ip), vehicle: saline
[3] = endpoint: survival time, mean or median, dose: 30.0 mg/kg/injection, schedule: Q01DX010 (ip), vehicle: saline
[4] = endpoint: survival time, mean or median, dose: 60.0 mg/kg/injection, schedule: Q01DX010 (ip), vehicle: saline
[5] = endpoint: survival time, mean or median, dose: 0.31 mg/kg/injection, schedule: Q01DX Z (ip), vehicle: carboxymethylcellulose (CMC)
[6] = endpoint: survival time, mean or median, dose: 0.63 mg/kg/injection, schedule: Q01DX Z (ip), vehicle: carboxymethylcellulose (CMC)
[7] = endpoint: survival time, mean or median, dose: 1.25 mg/kg/injection, schedule: Q01DX Z (ip), vehicle: carboxymethylcellulose (CMC)
[8] = endpoint: survival time, mean or median, dose: 12.5 mg/kg/injection, schedule: Q01DX010 (ip), vehicle: saline
[9] = endpoint: survival time, mean or median, dose: 12.5 mg/kg/injection, schedule: Q01DX Z (ip), vehicle: carboxymethylcellulose (CMC)
[10] = endpoint: survival time, mean or median, dose: 25.0 mg/kg/injection, schedule: Q01DX Z (ip), vehicle: carboxymethylcellulose (CMC)

CCN(CCNc1ccc(C)c2sc3cc(Cl)ccc3c(=O)c12)CC(C)O (centres undefined)
T/C (endpoint: survival time, mean or median, dose: 31.3 mg/kg/injection, schedule: Q01DX010 (ip), vehicle: saline): 112 % of control
T/C (endpoint: survival time, mean or median, dose: 62.5 mg/kg/injection, schedule: Q01DX010 (ip), vehicle: saline): 94 % of control
T/C [1]: 105 % of control
T/C [2]: 118 % of control and 94 % of control

C[C@]12CCC(=O)C[C@H]1CC[C@@H]1[C@@H]2CC[C@@]2(C)[C@H]1CC[C@]2(C)O
T/C (endpoint: survival time, mean or median, dose: 62.5 mg/kg/injection, schedule: Q01DX Z (sc), vehicle: steriod suspending solution): 97 % of control
T/C (endpoint: survival time, mean or median, dose: 125.0 mg/kg/injection, schedule: Q01DX Z (sc), vehicle: steriod suspending solution): 98 % of control
T/C (endpoint: survival time, mean or median, dose: 250.0 mg/kg/injection, schedule: Q01DX Z (sc), vehicle: steriod suspending solution): 109 % of control and 92 % of control
T/C (endpoint: survival time, mean or median, dose: 500.0 mg/kg/injection, schedule: Q01DX Z (sc), vehicle: steriod suspending solution): 104 % of control and 100 % of control
T/C (endpoint: survival time, mean or median, dose: 1000.0 mg/kg/injection, schedule: Q01DX Z (sc), vehicle: steriod suspending solution): 101 % of control

C[C@]12C=CC(=O)C=C1CC[C@@H]1[C@@H]2C(=O)C[C@@]2(C)[C@H]1CC[C@]2(O)C(=O)CO
T/C (endpoint: survival time, mean or median, dose: 12.5 mg/kg/injection, schedule: Q01DX010 (sc), vehicle: steriod suspending solution): 105 % of control
T/C (endpoint: survival time, mean or median, dose: 25.0 mg/kg/injection, schedule: Q01DX010 (sc), vehicle: steriod suspending solution): 103 % of control
T/C (endpoint: survival time, mean or median, dose: 50.0 mg/kg/injection, schedule: Q01DX010 (sc), vehicle: steriod suspending solution): 111 % of control and 87 % of control
T/C (endpoint: survival time, mean or median, dose: 50.0 mg/kg/injection, schedule: Q01DX Z (sc), vehicle: steriod suspending solution): 102 % of control and 100 % of control
T/C (endpoint: survival time, mean or median, dose: 100.0 mg/kg/injection, schedule: Q01DX010 (sc), vehicle: steriod suspending solution): 100 % of control
T/C (endpoint: survival time, mean or median, dose: 100.0 mg/kg/injection, schedule: Q01DX Z (sc), vehicle: steriod suspending solution): 102 % of control and 111 % of control
T/C (endpoint: survival time, mean or median, dose: 200.0 mg/kg/injection, schedule: Q01DX010 (sc), vehicle: steriod suspending solution): 97 % of control
T/C (endpoint: survival time, mean or median, dose: 200.0 mg/kg/injection, schedule: Q01DX Z (sc), vehicle: steriod suspending solution): 90 % of control and 100 % of control
T/C (endpoint: survival time, mean or median, dose: 400.0 mg/kg/injection, schedule: Q01DX Z (sc), vehicle: steriod suspending solution): 94 % of control

CN(Cc1cnc2nc(N)nc(N)c2n1)c1ccc(C(=O)N[C@@H](CCC(=O)O)C(=O)O)cc1
T/C (endpoint: median survival time, dose: 0.38 mg/kg/injection, schedule: Q01DX009 (ip), vehicle: sodium bicarbonate): 183 % of control
T/C (endpoint: median survival time, dose: 0.75 mg/kg/injection, schedule: Q01DX009 (ip), vehicle: sodium bicarbonate): 191 % of control
T/C (endpoint: median survival time, dose: 1.5 mg/kg/injection, schedule: Q01DX009 (ip), vehicle: sodium bicarbonate): 220 % of control
T/C (endpoint: median survival time, dose: 3.0 mg/kg/injection, schedule: Q01DX009 (ip), vehicle: sodium bicarbonate): 91 % of control
T/C (endpoint: median survival time, dose: 6.0 mg/kg/injection, schedule: Q01DX009 (ip), vehicle: sodium bicarbonate): 154 % of control
T/C (endpoint: survival time, mean or median, dose: 0.31 mg/kg/injection, schedule: Q01DX Z (ip), vehicle: other): 123 % of control
T/C (endpoint: survival time, mean or median, dose: 0.38 mg/kg/injection, schedule: Q01DX010 (ip), vehicle: other): 162 % of control and 167 % of control and 193 % of control
T/C (endpoint: survival time, mean or median, dose: 0.62 mg/kg/injection, schedule: Q01DX Z (ip), vehicle: other): 189 % of control and 222 % of control
T/C (endpoint: survival time, mean or median, dose: 0.75 mg/kg/injection, schedule: Q01DX010 (ip), vehicle: other): 176 % of control and 228 % of control and 235 % of control
T/C (endpoint: survival time, mean or median, dose: 1.25 mg/kg/injection, schedule: Q01DX Z (ip), vehicle: other): 219 % of control and 256 % of control and 261 % of control
T/C (endpoint: survival time, mean or median, dose: 1.5 mg/kg/injection, schedule: Q01DX010 (ip), vehicle: other): 229 % of control and 230 % of control (2×)
T/C (endpoint: survival time, mean or median, dose: 1.5 mg/kg/injection, schedule: Q01DX Z (ip), vehicle: other): 158 % of control
T/C (endpoint: survival time, mean or median, dose: 2.5 mg/kg/injection, schedule: Q01DX Z (ip), vehicle: other): 205 % of control and 244 % of control
T/C (endpoint: survival time, mean or median, dose: 3.0 mg/kg/injection, schedule: Q01DX010 (ip), vehicle: other): 186 % of control
T/C (endpoint: survival time, mean or median, dose: 5.0 mg/kg/injection, schedule: Q01DX Z (ip), vehicle: other): 116 % of control

CN(C)[C@@H]1C(=O)C(C(N)=O)=C(O)[C@@]2(O)C(=O)C3=C(O)c4c(O)cccc4C[C@H]3C[C@@H]12
T/C (endpoint: survival time, mean or median, dose: 7.5 mg/kg/injection, schedule: Q01DX010 (ip), vehicle: saline): 94 % of control
T/C (endpoint: survival time, mean or median, dose: 15.0 mg/kg/injection, schedule: Q01DX010 (ip), vehicle: saline): 105 % of control and 94 % of control
T/C [3]: 122 % of control and 100 % of control
T/C [4]: 94 % of control and 100 % of control

CC(=O)N(C)C
T/C (endpoint: survival time, mean or median, dose: 31.0 mg/kg/injection, schedule: Q01DX Z (ip), vehicle: saline): 103 % of control
T/C (endpoint: survival time, mean or median, dose: 125.0 mg/kg/injection, schedule: Q01DX Z (ip), vehicle: saline): 100 % of control
T/C (endpoint: survival time, mean or median, dose: 250.0 mg/kg/injection, schedule: Q01DX Z (ip), vehicle: saline): 93 % of control
T/C (endpoint: survival time, mean or median, dose: 500.0 mg/kg/injection, schedule: Q01DX Z (ip), vehicle: saline): 88 % of control
T/C (endpoint: survival time, mean or median, dose: 2000.0 mg/kg/injection, schedule: Q01DX Z (ip), vehicle: saline): 88 % of control

CCOC(N)=O
T/C [1]: 110 % of control and 94 % of control
T/C [2]: 94 % of control
T/C (endpoint: survival time, mean or median, dose: 500.0 mg/kg/injection, schedule: Q01DX010 (ip), vehicle: saline): 94 % of control

COC12C(COC(N)=O)C3=C(C(=O)C(C)=C(N)C3=O)N1CC1C2N1C (centres undefined)
T/C [5]: 110 % of control
T/C [6]: 120 % of control
T/C [7]: 114 % of control
T/C (endpoint: survival time, mean or median, dose: 5.0 mg/kg/injection, schedule: Q01DX Z (ip), vehicle: carboxymethylcellulose (CMC)): 156 % of control
T/C (endpoint: survival time, mean or median, dose: 10.0 mg/kg/injection, schedule: Q01DX Z (ip), vehicle: carboxymethylcellulose (CMC)): 167 % of control
T/C (endpoint: survival time, mean or median, dose: 20.0 mg/kg/injection, schedule: Q01DX Z (ip), vehicle: carboxymethylcellulose (CMC)): 93 % of control

COS(C)(=O)=O
T/C [8]: 100 % of control
T/C (endpoint: survival time, mean or median, dose: 12.5 mg/kg/injection, schedule: Q01DX Z (ip), vehicle: water): 109 % of control
T/C (endpoint: survival time, mean or median, dose: 25.0 mg/kg/injection, schedule: Q01DX010 (ip), vehicle: saline): 100 % of control
T/C (endpoint: survival time, mean or median, dose: 25.0 mg/kg/injection, schedule: Q01DX Z (ip), vehicle: water): 103 % of control
T/C (endpoint: survival time, mean or median, dose: 50.0 mg/kg/injection, schedule: Q01DX010 (ip), vehicle: saline): 87 % of control
T/C (endpoint: survival time, mean or median, dose: 100.0 mg/kg/injection, schedule: Q01DX010 (ip), vehicle: saline): 106 % of control
T/C (endpoint: survival time, mean or median, dose: 100.0 mg/kg/injection, schedule: Q01DX Z (ip), vehicle: water): 97 % of control

Nc1ncnc2c1ncn2C1OC(COCc2ccccc2)C(OCc2ccccc2)C1OCc1ccccc1 (centres undefined)
T/C (endpoint: survival time, mean or median, dose: 10.0 mg/kg/injection, schedule: Q01DX010 (ip), vehicle: saline): 94 % of control and 100 % of control
T/C (endpoint: survival time, mean or median, dose: 20.0 mg/kg/injection, schedule: Q01DX010 (ip), vehicle: saline): 111 % of control and 94 % of control
T/C (endpoint: survival time, mean or median, dose: 40.0 mg/kg/injection, schedule: Q01DX010 (ip), vehicle: saline): 105 % of control and 100 % of control
T/C (endpoint: survival time, mean or median, dose: 80.0 mg/kg/injection, schedule: Q01DX010 (ip), vehicle: saline): 94 % of control

O=C(O)CCCc1ccc(N(CCCl)CCCl)cc1
T/C (endpoint: survival time, mean or median, dose: 3.1 mg/kg/injection, schedule: Q01DX Z (ip), vehicle: carboxymethylcellulose (CMC)): 110 % of control
T/C (endpoint: survival time, mean or median, dose: 3.13 mg/kg/injection, schedule: Q01DX010 (ip), vehicle: saline): 88 % of control
T/C (endpoint: survival time, mean or median, dose: 6.25 mg/kg/injection, schedule: Q01DX010 (ip), vehicle: saline): 100 % of control
T/C (endpoint: survival time, mean or median, dose: 6.25 mg/kg/injection, schedule: Q01DX Z (ip), vehicle: carboxymethylcellulose (CMC)): 90 % of control
T/C [8]: 100 % of control
T/C [9]: 106 % of control
T/C [10]: 114 % of control and 88 % of control

N#CCSc1ncnc2nc[nH]c12
T/C [9]: 97 % of control
T/C [10]: 95 % of control
T/C [3]: 94 % of control
T/C (endpoint: survival time, mean or median, dose: 50.0 mg/kg/injection, schedule: Q01DX Z (ip), vehicle: carboxymethylcellulose (CMC)): 114 % of control and 95 % of control
T/C [4]: 88 % of control
T/C (endpoint: survival time, mean or median, dose: 120.0 mg/kg/injection, schedule: Q01DX010 (ip), vehicle: saline): 100 % of control

Nc1ncnc2c1ccn2C1OC(CO)C(O)C1O (centres undefined)
T/C [5]: 108 % of control and 92 % of control
T/C [6]: 112 % of control and 93 % of control
T/C [7]: 90 % of control
T/C (endpoint: survival time, mean or median, dose: 2.5 mg/kg/injection, schedule: Q01DX Z (ip), vehicle: carboxymethylcellulose (CMC)): 106 % of control
